Laboratory results reported in US20030181333A1, “Herbicide combinations comprising specific sulfonylureas” (Bayer CropScience GmbH, priority 2002, published 2003).

Legend:
Type in all cases: in vivo
Details in all cases: applied at 3-5 leaf stage, scored visually approx. 4-6 weeks after application, means of 2-3 repetitions, g of AS/ha: (A1 + B2)^S 12.5 + 6.25; Azur 800 + 40 + 200; B2 5; E) 60
Winter wheat = assay: Outdoor trial: compatibility, % damage to crop
Experimental: (§1) Herbicidal action and compatibility in outdoor trials
(§2) The plants were sown and cultivated (fertilization, irrigation, etc.) as customary in practice on trial fields with naturally occurring weeds.
(§3) The experiments were designed as random tests of 2 plots of 5-10 m^2, with 2-3 repetitions. Application was carried out using plot sprayers at the 3-5 leaf stage. The test substances were made up in 100-600 liters of water/ha and applied with a pressure of 3 bar.
(§4) After the treatment (approx. 4-6 weeks after application), the herbidical activity of the active compounds or active compound mixtures was scored visually by comparing the treated plants with the untreated controls. The damage and development of all above-ground parts of the plants was recorded. Scoring was done on a percentage scale (100% action=all plants dead; 50% action=50% of the plants and green plant parts dead; 0% action=no discernible action or damage to crop species.
(§5) In the tables below, the results are given as the means of 2-3 repetitions, and the activity achieved when active compounds (A+B) and C) were applied independently is stated in brackets.

Avena fatua = assay: Outdoor trial: herbicidal action, visual score
Experimental: as §1, §2, §3, §4, §5

Galium aparine = assay: Outdoor trial: herbicidal action, visual score
Experimental: as §1, §2, §3, §4, §5

COC(=O)c1ccc(I)cc1S(=O)(=O)[N-]C(=O)Nc1nc(C)nc(OC)n1.[Na+] [B2, iodosulfuron-methyl-sodium]
Winter wheat % Damage (Winter wheat): 0% | % Activity Avena fatua (Avena fatua): 68% | % Activity Galium aparine (Galium aparine): 25%

CCOC(=O)[C@@H](C)Oc1ccc(Oc2nc3ccc(Cl)cc3o2)cc1 [E), fenoxaprop-(P)-ethyl]
% Activity Avena fatua (Avena fatua): 70) % | % Activity Galium aparine (Galium aparine): 0) %
